Laboratory results reported in PMC10300798, “Alternative Enzyme Inhibition Assay for Safety Evaluation of Food Preservatives” (Life, 2023).

What was measured:
Format in all cases: biochemical
[1] = biological target: T1, alcohol dehydrogenase (ADH) (Saccharomyces cerevisiae, UniProt P00330); test: spectrophotometric NAD+ reduction, […] nm; details: read-out: Potassium Sorbate / IC20
T1 construct: gene ADH1
T1 sequence (P00330 2-348): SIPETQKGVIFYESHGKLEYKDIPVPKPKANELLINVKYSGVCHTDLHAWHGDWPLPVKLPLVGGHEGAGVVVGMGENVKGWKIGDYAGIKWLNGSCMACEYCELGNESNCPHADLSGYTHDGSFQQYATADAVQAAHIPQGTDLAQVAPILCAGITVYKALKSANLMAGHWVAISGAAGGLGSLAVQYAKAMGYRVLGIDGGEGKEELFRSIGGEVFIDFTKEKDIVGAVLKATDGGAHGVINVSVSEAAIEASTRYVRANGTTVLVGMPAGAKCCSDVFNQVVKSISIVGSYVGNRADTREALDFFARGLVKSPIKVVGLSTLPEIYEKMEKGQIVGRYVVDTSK

trypsin (Try) = biological target: T2, trypsin (Try) (Sus scrofa, UniProt P00761); test: BAEE hydrolysis, absorbance […] nm; details: read-out: Potassium Sorbate / IC50 (converted)
T2 construct: native, from porcine pancreas, lyophilized, 1300 BAEE U/mg (Sigma-Aldrich)
T2 sequence (P00761 9-231): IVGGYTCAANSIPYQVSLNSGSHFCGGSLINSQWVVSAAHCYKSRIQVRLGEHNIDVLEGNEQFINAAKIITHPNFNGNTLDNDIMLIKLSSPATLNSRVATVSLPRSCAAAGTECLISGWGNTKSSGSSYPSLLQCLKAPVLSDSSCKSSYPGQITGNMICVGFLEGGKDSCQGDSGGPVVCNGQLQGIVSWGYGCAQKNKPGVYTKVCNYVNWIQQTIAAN

[2] = biological target: T3, lactate dehydrogenase (LDH) (Oryctolagus cuniculus, UniProt P13491); test: spectrophotometric NAD+ reduction, […] nm; details: read-out: Sodium Benzoate / IC20
T3 construct: gene LDHA

Row | IC20 [1] [µg/mL] | IC50 (trypsin (Try)) [µM] | IC20 [2] [µg/mL] | Structure (SMILES)
1 | > 5000 | 134 |  | C/C=C/C=C/C(=O)O [potassium sorbate]
2 |  |  | 2200 ± 321 | O=C(O)c1ccccc1 [sodium benzoate]
